System: subjects with TRD
Assay: MADRS total score after a single 40-minute IV infusion, double-blind placebo-controlled study in TRD
Format: in vivo, human
Conditions: for Change from Baseline MADRS Total Score, Adjusted mean (SE) / Diff. Adjusted mean (SE) R(−)ketamine - Placebo: MMRM
Description: This was a double-blind, randomized, placebo-controlled, multicenter study comprised of 3 phases: screening (up to 2 weeks [day-15 to day-2]), in-clinic treatment (day-1 to day 2; including double-blind treatment [day 1]), and post-treatment follow-up (7 and 14 days after infusion on days 8 and 15, respectively). The study consisted of 3 arms: placebo, R(−)-ketamine solution (30 mg), and R(−)-ketamine solution (60 mg.) A total of 101 adult subjects with TRD were randomly allocated in cohorts of 33-35 subjects/arm to the 3 arms of the study in a blinded manner.
The subjects were randomized within 14 days of screening (Visit 1). Subjects were admitted to the clinic the evening prior to study treatment administration (day-1, Visit 2) and underwent baseline testing to ensure continued study eligibility. Study treatments were infused IV over 40 minutes the next morning (day 1, Visit 2). Starting immediately prior to dosing, subjects were monitored closely for safety.
To determine the efficacy of two doses (30 mg and 60 mg) of intravenous (IV) R(−)-ketamine hydrochloride, the doses were administered as an IV infusion over 40 minutes. These doses are within the range shown to be well-tolerated in a Phase 1 study in healthy volunteers. […] The 10-item clinician-administered MADRS was designed to be used in subjects with MDD to measure the overall severity of depressive symptoms. The MADRS scale is validated, reliable, and acceptable to regulatory health authorities as a primary scale to determine efficacy in major depression.
Population: Subjects with TRD in the full analysis set (FAS) and analyzed according to their randomized treatment. The analysis population includes all randomized subjects who receive any amount of study treatment and have at least one postbaseline assessment available. Variable: Change in total MADRS score from baseline at 24 hours after the start of infusion.
MADRS total score was assessed at 2 and 4 hours, 7 and 14 days after the start of the infusion (days 8 and 15, respectively). Note, for the 2-hour and 4-hour recall periods, the sleep and appetite items were not assessed.
Proportion of subjects with ≥50% improvement in MADRS total score at 24 hours, 7 days, and 14 days after start of infusion (days 8 and 15, respectively).
Proportion of subjects with a MADRS total score≤10 at 24 hours, 7 days, and 14 days after start of infusion (days 8 and 15, respectively).
The 10-item MADRS was administered by the study staff to measure the overall severity of depressive symptoms. The MADRS total score was assessed at screening and baseline (Day 1 pre-dose). The primary efficacy endpoint of improvement in the MADRS total score was evaluated prior to discharge on Day 2 of Visit 2, 24 hours after the start of the infusion of study treatment. The MADRS total score was also assessed at 2 hours, 4 hours, 7 days (on Day 8), and 14 days (on Day 15) after the start of the infusion to evaluate the secondary efficacy endpoints of response (defined as ≥50% improvement in the MADRS total score from pre-dose) and remission (defined as MADRS total score≤10) in the improvement of depressive symptoms in the subjects. While the MADRS is typically used with a 7-day recall period, versions of the MADRS including 2-hour and […] recall periods were used in this study. (For the 2 hour and 4 hour periods, the sleep and appetite items were […]; pre-dose scores for these items obtained on the same day were carried forward).
The change from baseline in MADRS scores was summarized separately by treatment arm for each visit. Associated baseline scores were taken as the last corresponding measurement prior to the first dose of IMP in the treatment period (i.e., Visit 2, pre-dose). The primary endpoint of change from baseline MADRS total score at 24 hours post start of infusion was evaluated using a mixed effects model for repeated measure (MMRM) analysis with observed cases only. […]

[1] = 30 mg, Day 1, 24 hours, primary endpoint
[2] = 60 mg, Day 1, 24 hours, primary endpoint

SMILES: CN[C@@]1(c2ccccc2Cl)CCCCC1=O.Cl [R(−)-ketamine, (2R)-2-(2-chlorophenyl)-2-(methylamino)cyclohexan-1-one]
- MADRS total score, Mean (30 mg, 2 hours): 20.7
- MADRS total score, Median (30 mg, 2 hours): 21.0
- MADRS total score, Mean (30 mg, 4 hours): 19.2
- MADRS total score, Median (30 mg, 4 hours): 19.0
- MADRS total score, Mean (30 mg, 24 hours (Day 2)): 16.7
- MADRS total score, Median (30 mg, 24 hours (Day 2)): 13.0
- Not-responder, % (30 mg, Day 1, 2 hours): 72.7%
- Responder (>=50% improvement of MADRS total score), % (30 mg, Day 1, 2 hours): (27.3) %
- adjusted odds ratio R-ket/placebo (95% CI) (30 mg, Day 1, 2 hours): 1.667 (0.503, 5.520)
- Change from Baseline MADRS Total Score, Adjusted mean (SE) (30 mg, Day 1, 2 hours): −9.7 (1.35)
- Diff. Adjusted mean (SE) R(−)ketamine - Placebo (30 mg, Day 1, 2 hours): −0.6 (1.85) [−4.24, 3.08]
- Not-responder, % (30 mg, Day 1, 4 hours): 72.7%
- Responder (>=50% improvement of MADRS total score), % (30 mg, Day 1, 4 hours): (27.3) %
- adjusted odds ratio R-ket/placebo (95% CI) (30 mg, Day 1, 4 hours): 0.963 (0.317, 2.928)
- Change from Baseline MADRS Total Score, Adjusted mean (SE) (30 mg, Day 1, 4 hours): −11.2 (1.36)
- Diff. Adjusted mean (SE) R(−)ketamine - Placebo (30 mg, Day 1, 4 hours): −0.1 (1.86) [−3.81, 3.56]
- Not-responder, % (30 mg, Day 1, 24 hours): 42.4%
- Responder (>=50% improvement of MADRS total score), % (30 mg, Day 1, 24 hours): (57.6) %
- adjusted odds ratio R-ket/placebo (95% CI) (30 mg, Day 1, 24 hours): 1.418 (0.524, 3.837)
- Change from Baseline MADRS Total Score, Adjusted mean (SE) [1]: −13.7 (1.75)
- Diff. Adjusted mean (SE) R(−)ketamine - Placebo [1]: −0.0 (2.42) [−4.84, 4.77]
- MADRS total score, Mean (30 mg, Day 8): 19.9
- MADRS total score, Median (30 mg, Day 8): 22.0
- Not-responder, % (30 mg, Day 8): 70.0%
- Responder (>=50% improvement of MADRS total score), % (30 mg, Day 8): (30.0) %
- adjusted odds ratio R-ket/placebo (95% CI) (30 mg, Day 8): 1.040 (0.336, 3.212)
- Change from Baseline MADRS Total Score, Adjusted mean (SE) (30 mg, Day 8): −10.4 (1.81)
- Diff. Adjusted mean (SE) R(−)ketamine - Placebo (30 mg, Day 8): 1.0 (2.51) [−4.01, 5.94]
- MADRS total score, Mean (30 mg, Day 15): 22.8
- MADRS total score, Median (30 mg, Day 15): 24.0
- Not-responder, % (30 mg, Day 15): 83.9%
- Responder (>=50% improvement of MADRS total score), % (30 mg, Day 15): (16.1) %
- adjusted odds ratio R-ket/placebo (95% CI) (30 mg, Day 15): 0.621 (0.169, 2.282)
- Change from Baseline MADRS Total Score, Adjusted mean (SE) (30 mg, Day 15): −7.5 (1.82)
- Diff. Adjusted mean (SE) R(−)ketamine - Placebo (30 mg, Day 15): 2.4 (2.53) [−2.62, 7.40]
- MADRS total score change from baseline, Mean (30 mg, to 2 hours): −8.8
- MADRS total score change from baseline, Median (30 mg, to 2 hours): −7.0
- MADRS total score change from baseline, Mean (30 mg, to 4 hours): −10.4
- MADRS total score change from baseline, Median (30 mg, to 4 hours): −10.0
- MADRS total score change from baseline, Mean (30 mg, to 24 hours): −12.8
- MADRS total score change from baseline, Median (30 mg, to 24 hours): −15.0
- MADRS total score change from baseline, Mean (30 mg, to Day 8): −9.8
- MADRS total score change from baseline, Median (30 mg, to Day 8): −7.0
- MADRS total score change from baseline, Mean (30 mg, to Day 15): −6.6
- MADRS total score change from baseline, Median (30 mg, to Day 15): −5.0
- MADRS total score, Mean (60 mg, 2 hours): 18.4
- MADRS total score, Median (60 mg, 2 hours): 20.0
- MADRS total score, Mean (60 mg, 4 hours): 17.6
- MADRS total score, Median (60 mg, 4 hours): 18.0
- MADRS total score, Mean (60 mg, 24 hours (Day 2)): 15.1
- MADRS total score, Median (60 mg, 24 hours (Day 2)): 16.0
- Not-responder, % (60 mg, Day 1, 2 hours): 68.6%
- Responder (>=50% improvement of MADRS total score), % (60 mg, Day 1, 2 hours): (31.4) %
- adjusted odds ratio R-ket/placebo (95% CI) (60 mg, Day 1, 2 hours): 2.031 (0.634, 6.504)
- Change from Baseline MADRS Total Score, Adjusted mean (SE) (60 mg, Day 1, 2 hours): −12.0 (1.31)
- Diff. Adjusted mean (SE) R(−)ketamine - Placebo (60 mg, Day 1, 2 hours): −2.9 (1.82) [−6.55, 0.67]
- Not-responder, % (60 mg, Day 1, 4 hours): 62.9%
- Responder (>=50% improvement of MADRS total score), % (60 mg, Day 1, 4 hours): (37.1) %
- adjusted odds ratio R-ket/placebo (95% CI) (60 mg, Day 1, 4 hours): 1.536 (0.534, 4.416)
- Change from Baseline MADRS Total Score, Adjusted mean (SE) (60 mg, Day 1, 4 hours): −12.8 (1.32)
- Diff. Adjusted mean (SE) R(−)ketamine - Placebo (60 mg, Day 1, 4 hours): −1.7 (1.83) [−5.34, 1.92]
- Not-responder, % (60 mg, Day 1, 24 hours): 54.3%
- Responder (>=50% improvement of MADRS total score), % (60 mg, Day 1, 24 hours): (45.7) %
- adjusted odds ratio R-ket/placebo (95% CI) (60 mg, Day 1, 24 hours): 0.847 (0.318, 2.254)
- Change from Baseline MADRS Total Score, Adjusted mean (SE) [2]: −15.3 (1.69)
- Diff. Adjusted mean (SE) R(−)ketamine - Placebo [2]: −1.6 (2.38) [−6.35, 3.11]
- MADRS total score, Mean (60 mg, Day 8): 17.7
- MADRS total score, Median (60 mg, Day 8): 21.0
- Not-responder, % (60 mg, Day 8): 65.7%
- Responder (>=50% improvement of MADRS total score), % (60 mg, Day 8): (34.3) %
- adjusted odds ratio R-ket/placebo (95% CI) (60 mg, Day 8): 1.202 (0.412, 3.511)
- Change from Baseline MADRS Total Score, Adjusted mean (SE) (60 mg, Day 8): −12.7 (1.72)
- Diff. Adjusted mean (SE) R(−)ketamine - Placebo (60 mg, Day 8): −1.4 (2.44) [−6.26, 3.45]
- MADRS total score, Mean (60 mg, Day 15): 19.3
- MADRS total score, Median (60 mg, Day 15): 22.0
- Not-responder, % (60 mg, Day 15): 65.7%
- Responder (>=50% improvement of MADRS total score), % (60 mg, Day 15): (34.3) %
- adjusted odds ratio R-ket/placebo (95% CI) (60 mg, Day 15): 1.715 (0.559, 5.263)
- Change from Baseline MADRS Total Score, Adjusted mean (SE) (60 mg, Day 15): −11.1 (1.73)
- Diff. Adjusted mean (SE) R(−)ketamine - Placebo (60 mg, Day 15): −1.2 (2.46) [−6.09, 3.69]
- MADRS difference from placebo (60 mg, day 15): ~2 point
- Statistical significance of the MADRS difference from placebo (60 mg, day 15): not statistically significant
- MADRS total score change from baseline, Mean (60 mg, to 2 hours): −11.3
- MADRS total score change from baseline, Median (60 mg, to 2 hours): −10.0
- MADRS total score change from baseline, Mean (60 mg, to 4 hours): −12.1
- MADRS total score change from baseline, Median (60 mg, to 4 hours): −12.0
- MADRS total score change from baseline, Mean (60 mg, to 24 hours): −14.5
- MADRS total score change from baseline, Median (60 mg, to 24 hours): −14.0
- MADRS total score change from baseline, Mean (60 mg, to Day 8): −12.0
- MADRS total score change from baseline, Median (60 mg, to Day 8): −10.0
- MADRS total score change from baseline, Mean (60 mg, to Day 15): −10.4
- MADRS total score change from baseline, Median (60 mg, to Day 15): −6.0

Source: patent publication US20260027068A1, “METHODS OF ADM[…]-KETAMINE” (Perception Neuroscience, Inc., priority 2022, published 2026)
